Where “and” joins values, the source holds several entries; their conditions need not be identical. Identical values can stand only once. Toxic doses and inconclusive results are not listed. No stated cut-off is given here; in the data, active means T/C of 150% or more; inactive means T/C below 125%.
System: L1210 leukemia ip in BDF1 mice, survival T/C
Test: NCI In Vivo Anticancer Drug Screen. Data for tumor model L1210 Leukemia (intraperitoneal) in B6D2F1 (BDF1) mice
Conditions: endpoint: mean survival time, higher = longer survival
How it was run: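 Each compound was tested against a transplantable tumor grown in mice. The endpoint was survival, with treated animals benchmarked against vehicle controls as a simple ratio.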

[1] = dose: 50.0 mg/kg/injection, schedule: Q01DX001 (ip), vehicle: carboxymethylcellulose (CMC)
[2] = dose: 100.0 mg/kg/injection, schedule: Q01DX001 (ip), vehicle: carboxymethylcellulose (CMC)
[3] = dose: 100.0 mg/kg/injection, schedule: Q01DX009 (ip), vehicle: carboxymethylcellulose (CMC)
[4] = dose: 200.0 mg/kg/injection, schedule: Q01DX009 (ip), vehicle: carboxymethylcellulose (CMC)
[5] = dose: 100.0 mg/kg/injection, schedule: Q04DX003 (ip), vehicle: saline with Tween-80
[6] = dose: 200.0 mg/kg/injection, schedule: Q04DX003 (ip), vehicle: saline with Tween-80
[7] = dose: 400.0 mg/kg/injection, schedule: Q04DX003 (ip), vehicle: saline with Tween-80
[8] = dose: 400.0 mg/kg/injection, schedule: Q01DX001 (ip), vehicle: carboxymethylcellulose (CMC)
[9] = dose: 100.0 mg/kg/injection, schedule: Q04DX003 (ip), vehicle: Klucel (hydroxypropylcellulose) (HPC)
[10] = dose: 200.0 mg/kg/injection, schedule: Q04DX003 (ip), vehicle: Klucel (hydroxypropylcellulose) (HPC)
[11] = dose: 400.0 mg/kg/injection, schedule: Q04DX003 (ip), vehicle: Klucel (hydroxypropylcellulose) (HPC)
[12] = dose: 100.0 mg/kg/injection, schedule: Q01DX009 (ip), vehicle: Klucel (hydroxypropylcellulose) (HPC)
[13] = dose: 200.0 mg/kg/injection, schedule: Q01DX009 (ip), vehicle: Klucel (hydroxypropylcellulose) (HPC)
[14] = dose: 100.0 mg/kg/injection, schedule: Q01DX009 (ip), vehicle: saline with Tween-80
[15] = dose: 100.0 mg/kg/injection, schedule: Q04DX002 (ip), vehicle: Klucel (hydroxypropylcellulose) (HPC)
[16] = dose: 200.0 mg/kg/injection, schedule: Q04DX002 (ip), vehicle: Klucel (hydroxypropylcellulose) (HPC)
[17] = dose: 400.0 mg/kg/injection, schedule: Q04DX002 (ip), vehicle: Klucel (hydroxypropylcellulose) (HPC)
[18] = dose: 100.0 mg/kg/injection, schedule: Q04DX002 (ip), vehicle: saline with Tween-80
[19] = dose: 200.0 mg/kg/injection, schedule: Q04DX002 (ip), vehicle: saline with Tween-80
[20] = dose: 400.0 mg/kg/injection, schedule: Q04DX002 (ip), vehicle: saline with Tween-80

Measured: T/C

Cc1cc(CC#N)c(CC#N)cc1C
inactive: [1] 110 % of control | dose: 50.0 mg/kg/injection, schedule: Q01DX009 (ip), vehicle: carboxymethylcellulose (CMC) 96 % of control and 117 % of control | dose: 50.0 mg/kg/injection, schedule: Q04DX002 (ip), vehicle: carboxymethylcellulose (CMC) 94 % of control and 102 % of control | dose: 50.0 mg/kg/injection, schedule: Q04DX003 (ip), vehicle: carboxymethylcellulose (CMC) 98 % of control | [2] 97 % of control | [3] 100 % of control and 106 % of control | dose: 100.0 mg/kg/injection, schedule: Q04DX002 (ip), vehicle: carboxymethylcellulose (CMC) 102 % of control and 105 % of control | dose: 100.0 mg/kg/injection, schedule: Q04DX003 (ip), vehicle: carboxymethylcellulose (CMC) 95 % of control | [4] 96 % of control | dose: 200.0 mg/kg/injection, schedule: Q04DX002 (ip), vehicle: carboxymethylcellulose (CMC) 97 % of control and 107 % of control

CN(C)C(=O)CNc1ccc(S(=O)(=O)c2ccc(Cl)cc2)cc1
inactive: [5] 101 % of control | [6] 101 % of control | [7] 95 % of control

N[C@H](Cc1c[nH]c2ccccc12)C(=O)O
inactive: dose: 100.0 mg/kg/injection, schedule: Q01DX009 (ip), vehicle: acetone 95 % of control | dose: 200.0 mg/kg/injection, schedule: Q01DX009 (ip), vehicle: acetone 104 % of control | dose: 400.0 mg/kg/injection, schedule: Q01DX009 (ip), vehicle: acetone 102 % of control | dose: 800.0 mg/kg/injection, schedule: Q01DX009 (ip), vehicle: acetone 95 % of control

OCC1OC(n2cnc3c(NO)ncnc32)CC1O (stereo unspecified)
inactive: [1] 102 % of control | [2] 109 % of control | dose: 200.0 mg/kg/injection, schedule: Q01DX001 (ip), vehicle: carboxymethylcellulose (CMC) 109 % of control | [8] 109 % of control

O=C(Nc1ccccc1)c1ccccc1
inactive: [9] 97 % of control | [10] 94 % of control | [11] 103 % of control

Cc1ccc(CSC(=N)N)cc1
inactive: [2] 104 % of control

O=C(O)CN(CCN(CC(=O)O)CC(=O)O)CCN(CC(=O)O)CC(=O)O
inactive: [2] 93 % of control | [8] 96 % of control

O=P(NNc1ccccc1)(NNc1ccccc1)c1ccccc1
inactive: [3] 90 % of control | [4] 88 % of control | dose: 400.0 mg/kg/injection, schedule: Q01DX009 (ip), vehicle: carboxymethylcellulose (CMC) 92 % of control

Clc1ccc(CN2COc3c(ccc4cccnc34)C2)cc1Cl
inactive: dose: 100.0 mg/kg/injection, schedule: Q04DX003 (ip), vehicle: saline sonified 105 % of control | dose: 200.0 mg/kg/injection, schedule: Q04DX003 (ip), vehicle: saline sonified 94 % of control | dose: 400.0 mg/kg/injection, schedule: Q04DX003 (ip), vehicle: saline sonified 100 % of control

CCN(CC)CCNC(=O)c1ccc(N=Cc2cc(Cl)cc(Cl)c2O)cc1
inactive: [12] 100 % of control | [13] 96 % of control

CCCCC1C(=O)N2c3ccccc3-c3ccccc3N2C1=O
inactive: dose: 75.0 mg/kg/injection, schedule: Q01DX001 (ip), vehicle: saline 99 % of control | dose: 150.0 mg/kg/injection, schedule: Q01DX001 (ip), vehicle: saline 96 % of control | dose: 300.0 mg/kg/injection, schedule: Q01DX001 (ip), vehicle: saline 101 % of control

CSc1ccc(NC(=O)Nc2cc(C)ccc2Cl)cc1
inactive: [12] 86 % of control | [13] 93 % of control | dose: 400.0 mg/kg/injection, schedule: Q01DX009 (ip), vehicle: Klucel (hydroxypropylcellulose) (HPC) 88 % of control

CC(=O)NC1C(OC(C)=O)OC(COC(c2ccccc2)(c2ccccc2)c2ccccc2)C(OS(C)(=O)=O)C1OC(C)=O (stereo unspecified)
inactive: dose: 50.0 mg/kg/injection, schedule: Q04DX003 (ip), vehicle: saline with Tween-80 109 % of control | [5] 109 % of control and 91 % of control | [6] 121 % of control | [7] 88 % of control

O=C(NCCCl)Nc1cccc2c(O)cccc12
inactive: [9] 98 % of control | [10] 96 % of control | [11] 107 % of control

CCN(CC)Cc1cc(Nc2cc(OC)cc3cccnc23)ccc1O
inactive: dose: 10.0 mg/kg/injection, schedule: Q01DX001 (ip), vehicle: saline 111 % of control | dose: 19.0 mg/kg/injection, schedule: Q01DX001 (ip), vehicle: saline 110 % of control | dose: 38.0 mg/kg/injection, schedule: Q01DX001 (ip), vehicle: saline 100 % of control

CCOC(C)C1C2CCCCC21 (stereo unspecified)
inactive: [14] 101 % of control | dose: 200.0 mg/kg/injection, schedule: Q01DX009 (ip), vehicle: saline with Tween-80 92 % of control

C1=C(c2ccccc2)CC(/C=C/c2ccccc2)(c2ccccc2)C1c1ccccc1 (stereo unspecified)
inactive: [14] 87 % of control

Cc1ccc(N=Cc2cc(Cl)cc(Cl)c2OC(=O)c2ccccc2)cc1Cl
inactive: [15] 94 % of control | [16] 111 % of control | [17] 97 % of control

N#CCCCN1CCCCCC1
inactive: dose: 25.0 mg/kg/injection, schedule: Q01DX009 (ip), vehicle: saline 98 % of control | dose: 25.0 mg/kg/injection, schedule: Q04DX003 (ip), vehicle: saline 101 % of control | dose: 50.0 mg/kg/injection, schedule: Q01DX009 (ip), vehicle: saline 93 % of control | dose: 50.0 mg/kg/injection, schedule: Q04DX003 (ip), vehicle: saline 101 % of control | dose: 100.0 mg/kg/injection, schedule: Q04DX003 (ip), vehicle: saline 101 % of control

CCCCCCCCCCCCCCCCCC(=O)Oc1c(C(C)(C)C)cc([N+](=O)[O-])c(C)c1[N+](=O)[O-]
inactive: [15] 92 % of control | [16] 92 % of control | [17] 96 % of control

CC(C)C(=O)OCC1CC2C=CC1C2 (stereo unspecified)
inactive: dose: 222.0 mg/kg/injection, schedule: Q01DX Z (ip), vehicle: saline 96 % of control | dose: 333.0 mg/kg/injection, schedule: Q01DX Z (ip), vehicle: saline 104 % of control | dose: 500.0 mg/kg/injection, schedule: Q01DX Z (ip), vehicle: saline 98 % of control

Cc1ccc(CN2C(=O)C=CC2=O)cc1
inactive: dose: 12.5 mg/kg/injection, schedule: Q04DX002 (ip), vehicle: Klucel (hydroxypropylcellulose) (HPC) 102 % of control | dose: 25.0 mg/kg/injection, schedule: Q04DX002 (ip), vehicle: Klucel (hydroxypropylcellulose) (HPC) 102 % of control

c1ccc2nc3ccccc3c-2cc1
inactive: dose: 100.0 mg/kg/injection, schedule: Q04DX003 (ip), vehicle: acetone 95 % of control | dose: 200.0 mg/kg/injection, schedule: Q04DX003 (ip), vehicle: acetone 98 % of control | dose: 400.0 mg/kg/injection, schedule: Q04DX003 (ip), vehicle: acetone 95 % of control

S=C(Nc1ccccc1)Nc1nccs1
inactive: dose: 100.0 mg/kg/injection, schedule: Q01DX001 (ip), vehicle: saline 104 % of control | [9] 105 % of control | dose: 200.0 mg/kg/injection, schedule: Q01DX001 (ip), vehicle: saline 101 % of control | [10] 101 % of control | dose: 400.0 mg/kg/injection, schedule: Q01DX001 (ip), vehicle: saline 101 % of control | [11] 103 % of control

CC1=CC(=O)C2=C(C)C[C@H](O)[C@@H]3[C@H](OC(=O)[C@H]3C)[C@@H]12
inactive: dose: 100.0 mg/kg/injection, schedule: Q04DX002 (ip), vehicle: saline 100 % of control | dose: 200.0 mg/kg/injection, schedule: Q04DX002 (ip), vehicle: saline 89 % of control | dose: 400.0 mg/kg/injection, schedule: Q04DX002 (ip), vehicle: saline 95 % of control

CC1CCOC(C)(CCl)O1 (stereo unspecified)
inactive: [18] 98 % of control | [19] 95 % of control | [20] 98 % of control

CC(O)C(=O)SCc1ccccc1 (stereo unspecified)
inactive: [18] 95 % of control | [19] 98 % of control | [20] 92 % of control

CC(=O)Nc1ncccn1
inactive: [18] 98 % of control | [19] 98 % of control | [20] 98 % of control

— PubChem BioAssay AID248 (DTP/NCI, 2004)
